Laboratory results published in ChEMBL document CHEMBL4325912, “Discovery of 2-(1H-imidazo-2-yl)piperazines as a new class of potent and non-cytotoxic inhibitors of Trypanosoma brucei growth in vitro” (Bioorg Med Chem Lett, 2018).
Active and inactive are the calls of the source. No cut-off for these calls is given here.

Columns and labels:
[1] = Cytotoxicity against human HeLa cells assessed as reduction in cell viability after 72 hrs by celltiter glo assay; assay type: cell-based
Trypanosoma brucei [2] = assay: Antitrypanosomal activity against Trypanosoma brucei Lister 427 bloodstream forms in presence of 10% FBS after 24 hrs by celltiter glo assay; assay type: functional, organism-based; conditions: Lister 427, 24 h
Histone deacetylase 1 [3] = target: T1, Histone deacetylase 1 (Homo sapiens, UniProt Q13547); assay: Inhibition of human HDAC1 up to 5 uM preincubated for 10 mins followed by BML-KI104 substrate addition and measured after 1 hr by spectrophotometric analysis
Histone deacetylase 2 [4] = target: T2, Histone deacetylase 2 (Homo sapiens, UniProt Q92769); assay: Inhibition of human HDAC2 up to 5 uM
Histone deacetylase 3 [5] = target: T3, Histone deacetylase 3 (Homo sapiens, UniProt O15379); assay: Inhibition of human HDAC3 up to 5 uM
[6] = target: Histone deacetylase 4 (Homo sapiens) (UniProt P56524); assay: Inhibition of human HDAC4 up to 5 uM
[7] = target: Histone deacetylase 5 (Homo sapiens) (UniProt Q9UQL6); assay: Inhibition of human HDAC5 up to 5 uM
[8] = target: T4, Protein deacetylase HDAC6 (Homo sapiens) (UniProt Q9UBN7); assay: Inhibition of human HDAC6 up to 5 uM
T4 sequence (whole entry): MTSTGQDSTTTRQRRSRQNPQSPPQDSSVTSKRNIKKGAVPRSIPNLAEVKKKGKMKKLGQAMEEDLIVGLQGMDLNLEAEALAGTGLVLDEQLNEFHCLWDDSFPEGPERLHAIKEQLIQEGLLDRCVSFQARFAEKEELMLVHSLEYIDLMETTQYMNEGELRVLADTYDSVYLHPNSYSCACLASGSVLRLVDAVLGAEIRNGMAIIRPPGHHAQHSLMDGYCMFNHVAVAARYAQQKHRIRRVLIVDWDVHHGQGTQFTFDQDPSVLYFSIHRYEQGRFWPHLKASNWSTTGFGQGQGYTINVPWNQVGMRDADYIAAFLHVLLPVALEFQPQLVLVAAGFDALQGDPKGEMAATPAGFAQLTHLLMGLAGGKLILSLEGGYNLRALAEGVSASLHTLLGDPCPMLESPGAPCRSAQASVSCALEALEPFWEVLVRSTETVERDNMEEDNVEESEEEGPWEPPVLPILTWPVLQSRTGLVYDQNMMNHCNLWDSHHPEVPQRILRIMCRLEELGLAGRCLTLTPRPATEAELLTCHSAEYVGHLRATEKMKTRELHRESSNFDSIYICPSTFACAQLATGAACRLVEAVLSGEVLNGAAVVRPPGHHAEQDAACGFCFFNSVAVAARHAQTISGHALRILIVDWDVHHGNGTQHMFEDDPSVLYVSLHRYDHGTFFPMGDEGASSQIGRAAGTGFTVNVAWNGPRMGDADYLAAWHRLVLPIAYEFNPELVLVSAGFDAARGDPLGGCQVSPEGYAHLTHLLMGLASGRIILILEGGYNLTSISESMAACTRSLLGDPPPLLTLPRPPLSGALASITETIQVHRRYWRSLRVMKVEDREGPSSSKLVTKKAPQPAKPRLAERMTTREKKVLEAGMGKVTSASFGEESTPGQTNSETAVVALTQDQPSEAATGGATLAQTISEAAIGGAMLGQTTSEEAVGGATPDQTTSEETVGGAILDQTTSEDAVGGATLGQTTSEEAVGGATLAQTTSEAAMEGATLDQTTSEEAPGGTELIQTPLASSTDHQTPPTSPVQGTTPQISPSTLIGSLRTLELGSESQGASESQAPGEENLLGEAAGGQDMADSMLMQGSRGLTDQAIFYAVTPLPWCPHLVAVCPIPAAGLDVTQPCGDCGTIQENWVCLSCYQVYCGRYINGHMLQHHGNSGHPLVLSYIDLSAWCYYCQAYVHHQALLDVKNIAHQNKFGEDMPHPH

[9] = target: T5, Histone deacetylase 7 (Homo sapiens) (UniProt Q8WUI4); assay: Inhibition of human HDAC7 up to 5 uM
T5 sequence (whole entry): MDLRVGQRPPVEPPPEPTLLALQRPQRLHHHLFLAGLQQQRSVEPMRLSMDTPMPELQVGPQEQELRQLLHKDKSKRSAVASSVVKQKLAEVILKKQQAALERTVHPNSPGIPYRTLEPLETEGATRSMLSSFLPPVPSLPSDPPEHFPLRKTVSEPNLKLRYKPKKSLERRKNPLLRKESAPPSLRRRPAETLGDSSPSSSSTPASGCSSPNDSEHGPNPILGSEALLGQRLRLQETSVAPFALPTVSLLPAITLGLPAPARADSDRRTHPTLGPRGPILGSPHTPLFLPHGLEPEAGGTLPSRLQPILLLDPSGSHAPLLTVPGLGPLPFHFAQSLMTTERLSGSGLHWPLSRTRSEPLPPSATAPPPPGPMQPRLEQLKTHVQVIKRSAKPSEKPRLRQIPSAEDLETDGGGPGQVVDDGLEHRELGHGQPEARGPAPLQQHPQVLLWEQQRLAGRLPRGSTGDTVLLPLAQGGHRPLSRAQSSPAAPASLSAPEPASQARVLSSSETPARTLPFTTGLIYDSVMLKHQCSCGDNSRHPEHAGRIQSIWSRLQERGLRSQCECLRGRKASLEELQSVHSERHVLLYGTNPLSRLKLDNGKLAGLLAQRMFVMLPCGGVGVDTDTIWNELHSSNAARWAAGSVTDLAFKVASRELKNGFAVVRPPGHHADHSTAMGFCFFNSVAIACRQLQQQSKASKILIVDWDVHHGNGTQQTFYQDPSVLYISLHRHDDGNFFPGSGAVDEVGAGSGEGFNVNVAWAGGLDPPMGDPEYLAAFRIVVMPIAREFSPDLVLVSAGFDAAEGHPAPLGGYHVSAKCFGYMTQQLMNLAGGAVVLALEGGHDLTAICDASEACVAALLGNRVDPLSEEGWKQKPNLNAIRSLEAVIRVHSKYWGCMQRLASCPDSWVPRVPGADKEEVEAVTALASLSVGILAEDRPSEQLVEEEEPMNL

[10] = target: T6, Histone deacetylase 8 (Homo sapiens) (UniProt Q9BY41); assay: Inhibition of human HDAC8 up to 5 uM
T6 sequence (whole entry): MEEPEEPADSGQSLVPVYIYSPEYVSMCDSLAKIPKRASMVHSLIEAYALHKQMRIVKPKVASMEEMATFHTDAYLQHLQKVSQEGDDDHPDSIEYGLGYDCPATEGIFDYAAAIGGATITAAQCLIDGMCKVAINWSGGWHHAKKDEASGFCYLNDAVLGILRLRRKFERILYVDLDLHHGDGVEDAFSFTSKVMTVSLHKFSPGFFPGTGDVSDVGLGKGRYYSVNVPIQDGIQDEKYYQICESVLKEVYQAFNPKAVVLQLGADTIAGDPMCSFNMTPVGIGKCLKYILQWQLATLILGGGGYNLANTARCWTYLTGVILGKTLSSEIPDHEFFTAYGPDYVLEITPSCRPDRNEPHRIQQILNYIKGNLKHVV

[11] = target: Histone deacetylase 9 (Homo sapiens) (UniProt Q9UKV0); assay: Inhibition of human HDAC9 up to 5 uM
Trypanosoma brucei [12] = assay: Inhibition of Trypanosoma brucei GSK3
Trypanosoma brucei [13] = assay: Inhibition of Trypanosoma brucei adenosine kinase
Trypanosoma brucei [14] = assay: Inhibition of Trypanosoma brucei Aurora 1 kinase
Trypanosoma brucei [15] = assay: Inhibition of Trypanosoma brucei trypanothione reductase
Histone deacetylase 1 [16] = target: T1, Histone deacetylase 1; assay: Inhibition of human HDAC1 preincubated for 10 mins followed by BML-KI104 substrate addition and measured after 1 hr by spectrophotometric analysis
Histone deacetylase 2 [17] = target: T2, Histone deacetylase 2; assay: Inhibition of human HDAC2
Histone deacetylase 3 [18] = target: T3, Histone deacetylase 3; assay: Inhibition of human HDAC3
[19] = target: Class 1 histone deacetylase (Homo sapiens, UniProt Q13547+O15379+Q92769+Q9BY41); assay: Inhibition of HDAC class 1 in human HeLa cells after 4 hrs by spectrophotometric analysis; assay type: cell-based

T3 sequence (O15379 whole entry): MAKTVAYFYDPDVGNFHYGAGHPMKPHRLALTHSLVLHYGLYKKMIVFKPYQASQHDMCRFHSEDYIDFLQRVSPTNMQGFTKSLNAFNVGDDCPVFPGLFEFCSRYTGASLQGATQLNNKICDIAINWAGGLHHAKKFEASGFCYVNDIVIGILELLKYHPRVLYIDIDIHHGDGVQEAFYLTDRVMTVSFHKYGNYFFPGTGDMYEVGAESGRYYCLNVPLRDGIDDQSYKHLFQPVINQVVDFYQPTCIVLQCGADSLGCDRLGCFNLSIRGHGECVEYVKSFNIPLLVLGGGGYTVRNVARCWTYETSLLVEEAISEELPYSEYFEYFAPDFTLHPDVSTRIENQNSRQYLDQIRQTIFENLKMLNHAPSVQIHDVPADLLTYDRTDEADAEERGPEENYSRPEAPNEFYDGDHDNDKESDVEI
T2 sequence (Q92769 whole entry): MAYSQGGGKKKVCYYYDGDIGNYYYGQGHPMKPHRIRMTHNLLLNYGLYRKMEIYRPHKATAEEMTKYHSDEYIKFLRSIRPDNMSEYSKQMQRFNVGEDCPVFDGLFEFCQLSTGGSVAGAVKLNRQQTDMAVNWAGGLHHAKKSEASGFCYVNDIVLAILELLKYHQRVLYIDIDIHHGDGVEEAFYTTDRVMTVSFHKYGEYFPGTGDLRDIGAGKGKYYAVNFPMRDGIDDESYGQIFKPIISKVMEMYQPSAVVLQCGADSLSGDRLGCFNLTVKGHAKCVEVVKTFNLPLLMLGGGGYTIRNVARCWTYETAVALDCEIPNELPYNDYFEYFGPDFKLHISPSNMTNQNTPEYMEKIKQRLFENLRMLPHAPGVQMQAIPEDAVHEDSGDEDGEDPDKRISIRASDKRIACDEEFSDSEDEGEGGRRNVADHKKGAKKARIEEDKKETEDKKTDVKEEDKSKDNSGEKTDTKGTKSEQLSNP
T1 sequence (Q13547 whole entry): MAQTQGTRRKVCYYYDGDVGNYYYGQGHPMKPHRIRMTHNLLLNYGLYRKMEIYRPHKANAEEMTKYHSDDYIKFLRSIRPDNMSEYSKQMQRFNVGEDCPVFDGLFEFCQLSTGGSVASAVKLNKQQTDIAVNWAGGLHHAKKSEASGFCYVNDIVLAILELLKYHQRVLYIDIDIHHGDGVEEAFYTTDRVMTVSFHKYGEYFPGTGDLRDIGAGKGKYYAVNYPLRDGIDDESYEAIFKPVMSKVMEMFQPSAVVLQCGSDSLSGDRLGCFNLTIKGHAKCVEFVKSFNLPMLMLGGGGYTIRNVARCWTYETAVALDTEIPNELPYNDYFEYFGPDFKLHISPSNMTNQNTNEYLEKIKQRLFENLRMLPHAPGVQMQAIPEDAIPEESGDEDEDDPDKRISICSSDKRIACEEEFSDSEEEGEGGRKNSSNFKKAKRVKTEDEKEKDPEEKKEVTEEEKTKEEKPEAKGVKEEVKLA
Sequence of Histone deacetylase 5 (Homo sapiens) (Q9UQL6 whole entry): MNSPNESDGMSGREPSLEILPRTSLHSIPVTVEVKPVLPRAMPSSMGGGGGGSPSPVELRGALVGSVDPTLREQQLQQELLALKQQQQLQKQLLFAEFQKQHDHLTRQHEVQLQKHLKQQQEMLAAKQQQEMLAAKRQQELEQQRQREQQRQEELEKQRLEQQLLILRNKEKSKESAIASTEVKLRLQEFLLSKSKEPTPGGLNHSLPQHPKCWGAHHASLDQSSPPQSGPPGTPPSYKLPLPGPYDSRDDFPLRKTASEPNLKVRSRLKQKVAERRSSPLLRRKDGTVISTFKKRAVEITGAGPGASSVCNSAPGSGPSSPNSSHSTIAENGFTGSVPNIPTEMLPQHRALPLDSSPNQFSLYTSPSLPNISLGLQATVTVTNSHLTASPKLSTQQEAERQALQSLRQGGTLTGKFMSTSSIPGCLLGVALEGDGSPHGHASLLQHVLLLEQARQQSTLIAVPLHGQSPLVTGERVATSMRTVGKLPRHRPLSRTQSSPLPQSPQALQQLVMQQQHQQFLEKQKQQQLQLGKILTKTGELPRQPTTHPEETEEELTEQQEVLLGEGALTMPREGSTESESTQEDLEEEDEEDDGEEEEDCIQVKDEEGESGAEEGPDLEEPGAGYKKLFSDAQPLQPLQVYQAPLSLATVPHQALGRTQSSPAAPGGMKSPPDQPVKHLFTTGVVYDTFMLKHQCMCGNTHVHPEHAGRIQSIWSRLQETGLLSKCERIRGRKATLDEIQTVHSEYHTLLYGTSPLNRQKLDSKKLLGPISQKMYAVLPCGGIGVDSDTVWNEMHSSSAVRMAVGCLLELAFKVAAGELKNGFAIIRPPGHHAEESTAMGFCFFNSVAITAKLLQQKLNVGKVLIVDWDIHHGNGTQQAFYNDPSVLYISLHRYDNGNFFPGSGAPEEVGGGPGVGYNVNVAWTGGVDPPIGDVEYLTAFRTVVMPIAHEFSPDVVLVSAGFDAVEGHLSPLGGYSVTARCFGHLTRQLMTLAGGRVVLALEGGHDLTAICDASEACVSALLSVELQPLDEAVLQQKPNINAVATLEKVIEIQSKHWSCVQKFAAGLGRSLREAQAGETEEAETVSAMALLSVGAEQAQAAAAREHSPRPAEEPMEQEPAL
Sequence of Histone deacetylase 4 (Homo sapiens) (P56524 whole entry): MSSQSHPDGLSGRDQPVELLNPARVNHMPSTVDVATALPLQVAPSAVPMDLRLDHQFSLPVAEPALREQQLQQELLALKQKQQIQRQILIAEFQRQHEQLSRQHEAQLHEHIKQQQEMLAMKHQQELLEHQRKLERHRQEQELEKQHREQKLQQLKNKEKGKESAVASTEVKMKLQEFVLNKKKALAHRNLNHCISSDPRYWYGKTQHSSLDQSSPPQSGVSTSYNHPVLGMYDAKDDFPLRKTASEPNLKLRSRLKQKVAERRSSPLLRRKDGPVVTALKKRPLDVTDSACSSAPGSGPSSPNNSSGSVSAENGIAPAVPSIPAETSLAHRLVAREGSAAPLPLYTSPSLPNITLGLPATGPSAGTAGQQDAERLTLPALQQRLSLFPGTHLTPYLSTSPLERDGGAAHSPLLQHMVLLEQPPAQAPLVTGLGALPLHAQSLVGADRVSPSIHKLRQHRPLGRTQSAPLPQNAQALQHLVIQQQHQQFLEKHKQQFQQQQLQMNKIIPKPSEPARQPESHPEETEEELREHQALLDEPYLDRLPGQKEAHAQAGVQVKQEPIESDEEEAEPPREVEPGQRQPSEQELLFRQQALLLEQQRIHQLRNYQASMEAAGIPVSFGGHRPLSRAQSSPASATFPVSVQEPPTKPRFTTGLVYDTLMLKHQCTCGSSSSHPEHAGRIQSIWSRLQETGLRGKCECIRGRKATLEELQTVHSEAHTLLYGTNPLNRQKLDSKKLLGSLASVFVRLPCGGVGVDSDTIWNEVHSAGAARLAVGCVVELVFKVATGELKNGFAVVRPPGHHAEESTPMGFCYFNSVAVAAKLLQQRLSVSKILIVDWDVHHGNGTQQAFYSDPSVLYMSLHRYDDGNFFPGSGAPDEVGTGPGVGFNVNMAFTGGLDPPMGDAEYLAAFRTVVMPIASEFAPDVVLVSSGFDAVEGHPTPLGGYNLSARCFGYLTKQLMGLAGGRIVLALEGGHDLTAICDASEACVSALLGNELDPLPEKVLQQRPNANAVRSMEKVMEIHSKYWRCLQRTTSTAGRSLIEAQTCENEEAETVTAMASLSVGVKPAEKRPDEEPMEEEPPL
Sequence of Histone deacetylase 9 (Homo sapiens) (Q9UKV0 whole entry): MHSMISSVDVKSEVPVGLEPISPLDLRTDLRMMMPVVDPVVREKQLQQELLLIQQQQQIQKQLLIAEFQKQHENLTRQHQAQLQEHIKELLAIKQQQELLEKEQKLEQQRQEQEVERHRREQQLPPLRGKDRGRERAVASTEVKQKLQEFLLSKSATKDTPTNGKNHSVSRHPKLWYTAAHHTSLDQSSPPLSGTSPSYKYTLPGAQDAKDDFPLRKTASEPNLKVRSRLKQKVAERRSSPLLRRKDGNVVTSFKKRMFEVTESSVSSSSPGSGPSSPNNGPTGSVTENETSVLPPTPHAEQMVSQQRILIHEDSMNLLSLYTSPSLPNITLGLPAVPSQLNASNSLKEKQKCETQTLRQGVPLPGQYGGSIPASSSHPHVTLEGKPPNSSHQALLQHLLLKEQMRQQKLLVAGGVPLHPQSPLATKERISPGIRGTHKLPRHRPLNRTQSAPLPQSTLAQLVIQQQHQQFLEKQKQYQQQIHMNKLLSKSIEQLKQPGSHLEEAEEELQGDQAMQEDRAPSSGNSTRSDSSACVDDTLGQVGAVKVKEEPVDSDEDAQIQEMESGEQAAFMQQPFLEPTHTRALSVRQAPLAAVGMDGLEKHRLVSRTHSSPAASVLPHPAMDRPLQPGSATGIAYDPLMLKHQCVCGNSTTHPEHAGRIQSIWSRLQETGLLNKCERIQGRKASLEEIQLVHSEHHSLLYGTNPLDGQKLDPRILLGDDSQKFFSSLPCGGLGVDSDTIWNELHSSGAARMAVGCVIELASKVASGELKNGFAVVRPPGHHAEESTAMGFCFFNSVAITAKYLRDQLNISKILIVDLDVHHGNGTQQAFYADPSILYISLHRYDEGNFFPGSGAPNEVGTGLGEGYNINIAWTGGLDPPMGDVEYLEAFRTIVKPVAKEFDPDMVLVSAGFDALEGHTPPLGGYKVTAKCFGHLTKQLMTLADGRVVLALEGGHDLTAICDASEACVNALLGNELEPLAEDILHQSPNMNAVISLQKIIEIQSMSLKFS

Compound | CC50 at 72 h [1] [nM] | EC50 (Trypanosoma brucei [2]) [nM] | other results
CCCCCCN1CCN(C(=O)Cc2c(C)[nH]c3ccc(OC)cc23)C(c2ncc(-c3ccc4ccccc4c3)[nH]2)C1 (stereo not drawn) | > 25000 | 79 | 
CCC(=O)CCCN1CCN(C(=O)Cc2ccccc2)C(c2ncc(-c3ccc4ccccc4c3)[nH]2)C1 (stereo not drawn) | > 25000 | 1800 | 
CCC(=O)CCCN1CCN(C(=O)Oc2ccccc2)C(c2ncc(-c3ccc4ccccc4c3)[nH]2)C1 (stereo not drawn) | 16600 | 1220 | 
COc1ccc2[nH]c(C)c(CC(=O)N3CCN(CCCC(C)O)CC3c3ncc(-c4ccc5ccccc5c4)[nH]3)c2c1 (stereo not drawn) | 13100 | 13 | 
CCC(=O)CCCN1CCN(C(=O)Cc2c(C)[nH]c3ccc(OC)cc23)C(c2nnc(-c3ccc4ccccc4c3)o2)C1 (stereo not drawn) | > 25000 | 304 | 
CCC(=O)CCCN1CCN(S(=O)(=O)c2ccccc2)C(c2ncc(-c3ccc4ccccc4c3)[nH]2)C1 (stereo not drawn) | > 25000 | 4120 | 
CCC(=O)CCCN1CCN(C(=O)Cc2c(C)[nH]c3ccc(OC)cc23)C(c2ncc(-c3ccc4ccccc4c3)[nH]2)C1 (stereo not drawn) | 12300 | 10 | inhibition (Histone deacetylase 1 [3]): inactive; inhibition (Histone deacetylase 2 [4]): inactive; inhibition (Histone deacetylase 3 [5]): inactive; inhibition [6]: inactive; inhibition [7]: inactive; inhibition [8]: inactive; inhibition [9]: inactive; inhibition [10]: inactive; inhibition [11]: inactive
COc1ccc2[nH]c(C)c(CC(=O)N3CCN(C)CC3c3ncc(-c4ccc5ccccc5c4)[nH]3)c2c1 (stereo not drawn) | > 25000 | 38 | inhibition (Trypanosoma brucei [12]): inactive; inhibition (Trypanosoma brucei [13]): inactive; inhibition (Trypanosoma brucei [14]): inactive; inhibition (Trypanosoma brucei [15]): inactive
CCC(=O)CCCN1CCN(C(=O)Cc2c[nH]c3ccccc23)C(c2ncc(-c3ccc4ccccc4c3)[nH]2)C1 (stereo not drawn) | > 25000 | 489 | IC50 (Histone deacetylase 1 [16]): > 25000 nM; IC50 (Histone deacetylase 2 [17]): > 25000 nM; IC50 (Histone deacetylase 3 [18]): > 25000 nM; IC50 [19]: > 25000 nM
CCC(=O)CCC(=O)N1CCN(C(=O)Cc2c(C)[nH]c3ccc(OC)cc23)C(c2ncc(-c3ccc4ccccc4c3)[nH]2)C1 (stereo not drawn) | > 25000 | 492 | 
COC(=O)CCCN1CCN(C(=O)Cc2c(C)[nH]c3ccc(OC)cc23)C(c2ncc(-c3ccc4ccccc4c3)[nH]2)C1 (stereo not drawn) | 28800 | 154 | 
CCC(=O)CCCN1CCN(C(=O)Nc2ccccc2)C(c2ncc(-c3ccc4ccccc4c3)[nH]2)C1 (stereo not drawn) | > 25000 | 1430 | 
CNC(=O)CCCN1CCN(C(=O)Cc2c(C)[nH]c3ccc(OC)cc23)C(c2ncc(-c3ccc4ccccc4c3)[nH]2)C1 (stereo not drawn) | > 5000 | 148 | 
COc1ccc2[nH]c(C)c(CC(=O)N3CCN(CCCC(=O)O)CC3c3ncc(-c4ccc5ccccc5c4)[nH]3)c2c1 (stereo not drawn) | > 50000 | 1100 | 
CCC(=O)CCCN1CCN(C(=O)Cc2c[nH]c3ccccc23)[C@@H](c2ncc(-c3ccc4ccccc4c3)[nH]2)C1 | > 32000 | 4360 | 
CCC(=O)CCCN1CCN(C(=O)Cc2c(C)[nH]c3ccc(OC)cc23)C(c2ncc(-c3ccc4ccccc4c3)o2)C1 (stereo not drawn) | 20600 | 1260 | 
CCC(=O)CCCN1CCN(C(=O)Cc2c[nH]c3ccccc23)[C@H](c2ncc(-c3ccc4ccccc4c3)[nH]2)C1 | > 25000 | 423 | 
COc1ccc2[nH]c(C)c(CC(=O)N3CCN(CCCC(N)=O)CC3c3ncc(-c4ccc5ccccc5c4)[nH]3)c2c1 (stereo not drawn) | > 25000 | 207 | 
COc1ccc2[nH]c(C)c(CC(=O)N3CCN(CC4CC4)CC3c3ncc(-c4ccc5ccccc5c4)[nH]3)c2c1 (stereo not drawn) | > 25000 | 16 | 
CCC(=O)CCCN1CCN(C(=O)Cc2c[nH]c3ncccc23)C(c2ncc(-c3ccc4ccccc4c3)[nH]2)C1 (stereo not drawn) | > 25000 | 545 | 
CCC(=O)CCCN1CCN(Cc2ccccc2)C(c2ncc(-c3ccc4ccccc4c3)[nH]2)C1 (stereo not drawn) | 14700 | 1720 | 
CCC(=O)CCCN1CCN(C(C)=O)C(c2ncc(-c3ccc4ccccc4c3)[nH]2)C1 (stereo not drawn) | > 32000 | > 25000 | 
CCC(=O)CCCN1CCN(C(=O)c2ccccc2)C(c2ncc(-c3ccc4ccccc4c3)[nH]2)C1 (stereo not drawn) | > 32000 | 1560 | 
